SMILES strings stand for the structures. Counter-ions that a name gives are not always drawn.

Data set [1] in a line: Determination of the microsomal half-life, human liver microsomes. The settings on record: human, liver microsomes, pH 7.4.
The nature of data set [2]: Determination of the microsomal half-life, rat liver microsomes. The settings on record: rat, liver microsomes, pH 7.4.
The target of data set [3] is T1, PDE10A (human) (Homo sapiens, UniProt Q9Y233).
T1 construct: purchased BPS Bioscience
T1 sequence (Q9Y233 whole entry): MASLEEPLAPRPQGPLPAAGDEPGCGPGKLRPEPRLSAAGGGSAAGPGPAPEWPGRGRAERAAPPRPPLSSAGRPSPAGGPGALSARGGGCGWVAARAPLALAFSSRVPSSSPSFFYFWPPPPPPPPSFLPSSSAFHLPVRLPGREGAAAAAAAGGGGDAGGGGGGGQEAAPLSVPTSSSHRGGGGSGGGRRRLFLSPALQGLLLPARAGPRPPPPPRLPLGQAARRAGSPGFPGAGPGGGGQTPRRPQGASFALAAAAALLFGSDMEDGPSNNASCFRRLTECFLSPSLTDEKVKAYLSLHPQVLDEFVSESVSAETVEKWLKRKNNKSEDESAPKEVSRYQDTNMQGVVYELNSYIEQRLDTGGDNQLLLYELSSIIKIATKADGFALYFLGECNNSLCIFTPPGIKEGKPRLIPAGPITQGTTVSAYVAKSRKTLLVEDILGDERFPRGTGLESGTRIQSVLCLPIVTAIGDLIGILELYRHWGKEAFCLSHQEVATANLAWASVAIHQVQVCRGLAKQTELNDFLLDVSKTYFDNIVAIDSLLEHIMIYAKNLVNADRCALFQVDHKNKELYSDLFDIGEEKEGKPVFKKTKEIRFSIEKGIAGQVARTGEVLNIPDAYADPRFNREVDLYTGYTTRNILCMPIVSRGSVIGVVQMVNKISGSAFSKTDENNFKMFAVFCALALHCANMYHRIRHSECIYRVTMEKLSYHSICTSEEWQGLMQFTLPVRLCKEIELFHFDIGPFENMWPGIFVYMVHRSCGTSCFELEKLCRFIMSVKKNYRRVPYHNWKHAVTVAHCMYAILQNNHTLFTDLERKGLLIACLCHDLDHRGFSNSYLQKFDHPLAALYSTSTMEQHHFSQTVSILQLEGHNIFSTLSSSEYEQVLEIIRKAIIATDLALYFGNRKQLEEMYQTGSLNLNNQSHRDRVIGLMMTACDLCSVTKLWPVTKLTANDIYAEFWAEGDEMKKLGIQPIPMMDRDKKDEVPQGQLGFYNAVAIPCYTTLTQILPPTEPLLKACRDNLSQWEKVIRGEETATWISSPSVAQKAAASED
Description: Measurement of PDE activity (HTRF cAMP kit), human PDE10A. Type of data set: biochemical. The settings on record: PDE enzymatic reaction, substrate 20 nM for PDE10, 60 minutes at 29 C. The essentials: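 HTRF detection of cAMP left after hydrolysis, expressed as percent of uninhibited control to derive IC50. Reaction: serially diluted inhibitor mixed with recombinant enzyme, started with 20 nM cAMP, 60 min at 29 °C in Tris-HCl pH 7.5 buffer containing MgCl2 and BSA.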
For orientation: In TR-FRET formats the signal depends on donor and acceptor labels being close together.

As usually defined, the microsomal CLint is the rate of metabolic loss divided by the concentration. Read a low microsomal CLint as slow turnover. In general, IC50 refers to the concentration at which inhibition is half-maximal. The low end stands for greater potency in that assay, the high end for weaker potency in that assay. In the case of `Cn1ccc(-c2ccnc3c2C(=O)N(CCc2ccc4ccccc4n2)C3)c1` [Example 337, 4-(1-Methyl-1H-pyrrol-3-yl)-6-(2-quinolin-2-yl-ethyl)-6,7-dihydro-pyrrolo[3,4-b]pyridin-5-one], the microsomal CLint at 0.5 μM is 100 to 220 µL/min/mg in data set [1] and more than 220 µL/min/mg in data set [2]. In data set [3], this compound showed an IC50 of 100 to 200 nM.
For the compound `Cn1nccc1-c1ccnc2c1C(=O)N(CCc1cn3ccccc3n1)C2` [Example 255, 6-(2-Imidazo[1,2-a]pyridin-2-yl-ethyl)-4-(2-methyl-2H-pyrazol-3-yl)-6,7-dihydro-pyrrolo[3,4-b]pyridin-5-one], the microsomal CLint at 0.5 μM in data set [1] and in data set [2] was less than 100 µL/min/mg each time. In data set [3], this compound had an IC50 of 100 to 200 nM.
With `O=C1c2c(cccc2-c2cccnc2)CN1CCc1nc2ncccc2[nH]1` [Example 253, 2-[2-(1H-Imidazo[4,5-b]pyridin-2-yl)-ethyl]-7-pyridin-3-yl-2,3-dihydro-isoindol-1-one], the microsomal CLint at 0.5 μM in data set [1] and in data set [2] was less than 100 µL/min/mg in each case. This compound yielded an IC50 in data set [3] of 200 to 500 nM.
As for `O=C1c2c(-c3cc[nH]n3)ccnc2CN1CCc1cn2ccccc2n1` [compound 413, 6-(2-Imidazo[1,2-a]pyridin-2-yl-ethyl)-4-(1H-pyrazol-3-yl)-6,7-dihydro-pyrrolo[3,4-b]pyridin-5-one], the microsomal CLint at 0.5 μM in data set [1] and in data set [2] was less than 100 µL/min/mg each time. In addition, in data set [3], the IC50 is less than 100 nM.
Consider `COc1ccc(-c2ccc(F)c3c2C(=O)N(CCc2cn4ccccc4n2)C3)cc1` [Example 380, 4-Fluoro-2-(2-imidazo[1,2-a]pyridin-2-yl-ethyl)-7-(4-methoxy-phenyl)-2,3-dihydro-isoindol-1-one], for which the microsomal CLint at 0.5 μM in data set [1] was 100 to 220 µL/min/mg; in data set [2] it was more than 220 µL/min/mg. This compound displayed an IC50 in data set [3] of 200 to 500 nM.
Regarding `O=C1c2c(cccc2-c2ccc(F)cc2)CN1CCc1cn2ccccc2n1` [Example 236, 7-(4-Fluoro-phenyl)-2-(2-imidazol[1,2-a]pyridin-2-yl-ethyl)-2,3-dihydro-isoindol-1-one], the microsomal CLint at 0.5 μM in data set [1] and in data set [2] was 100 to 220 µL/min/mg in each case. In data set [3], this compound came in with a concentration for half-maximal inhibition (IC50) of 200 to 500 nM.
For `O=C1c2c(cccc2N2CCOCC2)CN1CCc1nc2ccccc2n1C(F)F` [compound 449, 2-[2-(1-Difluoromethyl-1H-benzoimidazol-2-yl)-ethyl]-7-morpholin-4-yl-2,3-dihydro-isoindol-1-one trifluoroacetate], the microsomal CLint at 0.5 μM in data set [1] and in data set [2] was 100 to 220 µL/min/mg in each case. The IC50 in data set [3] lay in the range of 200 to 500 nM.
For the compound `O=C1c2cccc(-c3cc[nH]n3)c2CN1CCc1cn2ccccc2n1` [Example 314, 2-(2-Imidazo[1,2-a]pyridin-2-yl-ethyl)-4-(1H-pyrazol-3-yl)-2,3-dihydro-isoindol-1-one trifluoroacetate], the microsomal CLint at 0.5 μM in data set [1] and in data set [2] was less than 100 µL/min/mg each time. Moreover, the IC50 in data set [3] is less than 100 nM.
For the compound `Cc1ccc2c(c1)nc(CCN1Cc3nccc(-c4ccnn4C)c3C1=O)n2C` [compound 540, 6-[2-(1,5-Dimethylbenzimidazol-2-yl)ethyl]-4-(2-methylpyrazol-3-yl)-7H-pyrrolo[3,4-b]pyridin-5-one], the microsomal CLint at 0.5 μM in data set [1] and in data set [2] was less than 100 µL/min/mg throughout. Besides, in data set [3], the IC50 was less than 100 nM.
Consider `O=C1c2c(C3=CCOCC3)ccnc2CN1CCc1ccc2ccccc2n1` [Example 265, 4-(3,6-Dihydro-2H-pyran-4-yl)-6-(2-quinolin-2-yl-ethyl)-6,7-dihydro-pyrrolo[3,4-b]pyridin-5-one], for which the microsomal CLint at 0.5 μM in data set [1] and in data set [2] was 100 to 220 µL/min/mg throughout. The compound also displayed an IC50 in data set [3] of less than 100 nM.
For `O=C1c2c(cccc2NC2COC2)CN1CCc1ccc2ccccc2n1` [Example 274, 7-(Oxetan-3-ylamino)-2-(2-quinolin-2-yl-ethyl)-2,3-dihydro-isoindol-1-one], the microsomal CLint at 0.5 μM in data set [1] and in data set [2] was 100 to 220 µL/min/mg throughout. In data set [3], this compound gave an IC50 of less than 100 nM.
As to `O=C1c2cccc(N3CCOCC3)c2CN1CCc1cn2ccccc2n1` [Example 308, 2-(2-Imidazo[1,2-a]pyridin-2-yl-ethyl)-4-morpholin-4-yl-2,3-dihydro-isoindol-1-one], the microsomal CLint at 0.5 μM in data set [1] and in data set [2] was less than 100 µL/min/mg throughout. Also, the IC50 in data set [3] fell in the range of 100 to 200 nM.
On to `COc1ccc(NC2COC2)c2c1CN(CCc1nc3ccccc3n1C)C2=O` [compound 411, 4-Methoxy-2-[2-(1-methyl-1H-benzoimidazol-2-yl)-ethyl]-7-(oxetan-3-ylamino)-2,3-dihydro-isoindol-1-one], for which the intrinsic metabolic clearance (microsomal CLint) at 0.5 μM in data set [1] was more than 220 µL/min/mg; in data set [2], 100 to 220 µL/min/mg. The compound also returned an IC50 in data set [3] of less than 100 nM.
In the same order, the values of `O=C1c2c(cccc2NC2CCS(=O)(=O)C2)CN1CCc1ccc2ccccc2n1` (stereo not drawn) [Example 190, 7-(1,1-Dioxo-tetrahydro-thiophen-3-ylamino)-2-(2-quinolin-2-yl-ethyl)-2,3-dihydro-isoindol-1-one] are 100 to 220 µL/min/mg, 100 to 220 µL/min/mg and 100 to 200 nM.
`O=C1c2c(N3CCC4(COC4)C3)ccnc2CN1CCc1nc2ccccc2s1` [compound 424, 6-[2-(1,3-Benzothiazol-2-yl)ethyl]-4-(2-oxa-7-azaspiro[3.4]octan-7-yl)-7H-pyrrolo[3,4-b]pyridin-5-one]: the microsomal CLint at 0.5 μM in data set [1] and in data set [2] was less than 100 µL/min/mg each time. This compound showed an IC50 in data set [3] of less than 100 nM.
Take `O=C1c2c(-c3ccc(F)cc3)ccnc2CN1CCc1nc2ccccc2s1` [compound 542, 6-[2-(1,3-Benzothiazol-2-yl)ethyl]-4-(4-fluorophenyl)-7H-pyrrolo[3,4-b]pyridin-5-one trifluoroacetate]: the microsomal CLint at 0.5 μM is less than 100 µL/min/mg in data set [1] and 100 to 220 µL/min/mg in data set [2]. For the same compound, the IC50 in data set [3] was in the range of 100 to 200 nM.
For the compound `O=C1c2c(cccc2-c2ccncc2)CN1CCc1nc2ccccc2s1` [Example 223, 2-(2-Benzothiazol-2-yl-ethyl)-7-pyridin-4-yl-2,3-dihydro-isoindol-1-one trifluoroacetate], the microsomal CLint at 0.5 μM in data set [1] and in data set [2] was less than 100 µL/min/mg each time. In data set [3], this compound came in with an IC50 of less than 100 nM.
On to `Cn1nccc1-c1ccc(F)c2c1C(=O)N(CCc1cn3ccccc3n1)C2` [Example 382, 4-Fluoro-2-(2-imidazo[1,2-a]pyridin-2-yl-ethyl)-7-(2-methyl-2H-pyrazol-3-yl)-2,3-dihydro-isoindol-1-one], for which the microsomal CLint at 0.5 μM in data set [1] and in data set [2] was less than 100 µL/min/mg throughout. Moreover, the 50% inhibitory concentration (IC50) in data set [3] was less than 100 nM.
`COc1ccc(-c2ccncc2)c2c1CN(CCc1nc3ccccc3n1C)C2=O` [Example 370, 4-Methoxy-2-[2-(1-methyl-1H-benzoimidazol-2-yl)-ethyl]-7-pyridin-4-yl-2,3-dihydro-isoindol-1-one]: the values for the microsomal CLint at 0.5 μM in data set [1] and in data set [2] were more than 220 µL/min/mg and less than 100 µL/min/mg, respectively. This compound came in with an IC50 in data set [3] of less than 100 nM.
Consider `O=C1c2c(N3CCC(C(F)F)C3)ccnc2CN1CCc1nc2ccccc2s1` (stereo not drawn) [compound 385, 6-[2-(1,3-Benzothiazol-2-yl)ethyl]-4-[3-(difluoromethyl)pyrrolidin-1-yl]-7H-pyrrolo[3,4-b]pyridin-5-one], for which the microsomal CLint at 0.5 μM in data set [1] and in data set [2] was 100 to 220 µL/min/mg throughout. The same compound had an IC50 in data set [3] of less than 100 nM.
`O=C1c2c(-c3cncnc3)ccnc2CN1CCc1nc2ccccc2s1` [compound 544, 6-[2-(1,3-Benzothiazol-2-yl)ethyl]-4-pyrimidin-5-yl-7H-pyrrolo[3,4-b]pyridin-5-one]: the microsomal CLint at 0.5 μM in data set [1] and in data set [2] was less than 100 µL/min/mg in each case. Besides, the IC50 in data set [3] fell in the range of 100 to 200 nM.
In the case of `Cn1c(CCN2Cc3cccc(N4CCOCC4)c3C2=O)nc2cc(F)ccc21` [Example 262, 2-[2-(5-Fluoro-1-methyl-1H-benzoimidazol-2-yl)-ethyl]-7-morpholin-4-yl-2,3-dihydro-isoindol-1-one], the microsomal CLint at 0.5 μM was 100 to 220 µL/min/mg in data set [1] and less than 100 µL/min/mg in data set [2]. In data set [3], this compound had an IC50 of less than 100 nM.
For the compound `O=C1c2c(-c3cn[nH]c3)ccnc2CN1CCc1cn2ccccc2n1` [Example 365, 6-(2-Imidazo[1,2-a]pyridin-2-yl-ethyl)-4-(1H-pyrazol-4-yl)-6,7-dihydro-pyrrolo[3,4-b]pyridin-5-one], the microsomal CLint at 0.5 μM in data set [1] is less than 100 µL/min/mg; in data set [2] it was 100 to 220 µL/min/mg. Besides, in data set [3], the IC50 was less than 100 nM.
In the same order, the values of `COc1ccc(N2CCOCC2)c2c1CN(CCc1ccc3ccccc3n1)C2=O` [Example 248, 4-Methoxy-7-morpholin-4-yl-2-(2-quinolin-2-yl-ethyl)-2,3-dihydro-isoindol-1-one] are less than 100 µL/min/mg, less than 100 µL/min/mg and less than 100 nM.
`O=C1c2cccc(-c3cc[nH]n3)c2CN1CCc1ccc2ccccc2n1` [Example 200, 4-(1H-Pyrazol-3-yl)-2-(2-quinolin-2-yl-ethyl)-2,3-dihydro-isoindol-1-one]: the values for the microsomal CLint at 0.5 μM in data set [1] and in data set [2] were 100 to 220 µL/min/mg and more than 220 µL/min/mg, respectively. The compound also had an IC50 in data set [3] of less than 100 nM.
For `O=C1c2c(cccc2N2CC[S+]([O-])CC2)CN1CCc1ccc2ccccc2n1` [Example 135, 7-(1-oxo-thiomorpholin-4-yl)-2-(2-quinolin-2-yl-ethyl)-2,3-dihydro-isoindol-1-one], the microsomal CLint at 0.5 μM in data set [1] and in data set [2] was less than 100 µL/min/mg each time. The IC50 in data set [3] was less than 100 nM.

For the origin of these results see patent publication US9938269B2, “Inhibitor compounds of phosphodiesterase type 10A” (ABBVIE INC., priority 2011, dated 2018).
